Results on 16 compounds are retold here after PubChem BioAssay (NCI).

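Following 48 hours of exposure in 96-well plates, responses at five concentrations were used to interpolate endpoints linearly. TGI denotes the concentration required for complete inhibition of growth.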 Where a SMILES comes first, the peptide text is derived from it. [ ]: non-standard residue; d: D form. The star is where a group is joined. hSer = N[CH](CCO)C(=O)O; Boc = CC(C)(C)OC(=O)*

Some test systems named below: HCC-2998 colon; M14 melanoma; MALME-3M melanoma; NCI-H522 lung; OVCAR-4 ovarian; OVCAR-5 ovarian; SN12C renal; T-47D breast; UACC-257 melanoma.
Holding throughout (test): inhibition of tumour cell growth, NCI panel, 48 h

On to `CN(NC(=O)c1ccco1)C1=NCCCCN1`, for which the TGI in the experiment on HCC-2998 colon, in the experiment with M14 melanoma, in the experiment with MALME-3M melanoma, with NCI-H522 lung, in the experiment with OVCAR-4 ovarian and in the experiment on OVCAR-5 ovarian was greater than 100 µM each time. The TGI in the experiment on SN12C renal, in the experiment with T-47D breast and in the experiment with UACC-257 melanoma was greater than 100 µM each time.

Regarding `CC(C)CN1CN(c2ccccc2)C2(CCN(CC(C)(c3ccc(F)cc3)C3OCCO3)CC2)C1=O` (stereo unspecified), the TGI with HCC-2998 colon is 8.52 µM; in the experiment with M14 melanoma, 8.46 µM; with MALME-3M melanoma, 17.2 µM; with NCI-H522 lung, 12.7 µM; in the experiment on OVCAR-4 ovarian, 29.7 µM; with OVCAR-5 ovarian, 25.7 µM. In addition, the results for the TGI in the experiment with SN12C renal, in the experiment on T-47D breast and with UACC-257 melanoma were 19.1 µM, 15.3 µM and 10.8 µM, respectively.

With `N#Cc1[nH]c(=O)n(-c2ccc([N+](=O)[O-])cc2)c1N`, the TGI in the experiment on HCC-2998 colon, with M14 melanoma, in the experiment with MALME-3M melanoma, in the experiment on NCI-H522 lung, in the experiment on OVCAR-4 ovarian and in the experiment with OVCAR-5 ovarian was greater than 10 µM in each case. Further, the TGI in the experiment with SN12C renal, in the experiment with T-47D breast and in the experiment on UACC-257 melanoma was greater than 10 µM in each case.

As for `CC12CC3c4ccccc4CN1C3(c1ccccc1)OC2=O` (stereo unspecified), the TGI with M14 melanoma, with MALME-3M melanoma, in the experiment with NCI-H522 lung, in the experiment with OVCAR-4 ovarian, in the experiment on OVCAR-5 ovarian and in the experiment on SN12C renal was greater than 100 µM in each case. The TGI in the experiment on T-47D breast and with UACC-257 melanoma was greater than 100 µM each time.

On to `O=C(CCSC(CC(=O)c1ccc(Cl)cc1)c1ccc(Cl)cc1)Nc1ccc(Cl)cc1` (stereo unspecified), for which the TGI with HCC-2998 colon was found to be 27 µM; in the experiment with M14 melanoma, 28.2 µM; with MALME-3M melanoma it was 30.6 µM; in the experiment with NCI-H522 lung it was 40.2 µM; in the experiment with OVCAR-4 ovarian, 35.5 µM; in the experiment on OVCAR-5 ovarian, 31.6 µM. The values for the TGI in the experiment on SN12C renal, with T-47D breast and in the experiment with UACC-257 melanoma were 24.8 µM, 22.2 µM and 29.6 µM, respectively.

Turning to `COc1c2nc(CCl)n(C)c(=O)c2c(OC)c2c(=O)n(C)c(CCl)nc12`, the TGI in the experiment with HCC-2998 colon is 2.65 µM; in the experiment with MALME-3M melanoma, 3.44 µM; in the experiment with NCI-H522 lung it was 2.8 µM; in the experiment on OVCAR-4 ovarian it was greater than 100 µM; in the experiment on OVCAR-5 ovarian, 7.75 µM; in the experiment on SN12C renal, 3.56 µM. This compound came in with a TGI in the experiment on UACC-257 melanoma of 5.24 µM.

Consider `CN1CC(c2ccccc2)=Cc2c1ccc(N)c2N=N`, for which the TGI with HCC-2998 colon, in the experiment on M14 melanoma, with MALME-3M melanoma, in the experiment with NCI-H522 lung, in the experiment on OVCAR-4 ovarian and in the experiment on OVCAR-5 ovarian was greater than 100 µM each time. Moreover, the TGI with SN12C renal, in the experiment on T-47D breast and in the experiment on UACC-257 melanoma was greater than 100 µM in each case.

Consider `O=C(NCCNCCO)N/N=C/c1cccc([N+](=O)[O-])c1`, for which the TGI in the experiment on M14 melanoma, with MALME-3M melanoma, in the experiment on NCI-H522 lung, in the experiment with OVCAR-4 ovarian, in the experiment with OVCAR-5 ovarian and in the experiment on SN12C renal was greater than 100 µM throughout. The TGI in the experiment with UACC-257 melanoma is greater than 100 µM.

In the case of `COc1c(C2(c3ccc(F)cc3)SCCCS2)c(=O)c1=O`, the TGI with HCC-2998 colon, with M14 melanoma, in the experiment with MALME-3M melanoma, in the experiment on OVCAR-4 ovarian, with OVCAR-5 ovarian and in the experiment on SN12C renal was greater than 100 µM each time. Also, the TGI in the experiment with UACC-257 melanoma was greater than 100 µM.

In the case of `CCOC(=O)c1cc2cc(Cc3ccc4[nH]c(C(=O)OCC)cc4c3)ccc2[nH]1`, the TGI in the experiment on HCC-2998 colon was greater than 100 µM; in the experiment with M14 melanoma it was greater than 100 µM; with MALME-3M melanoma, greater than 100 µM; in the experiment with OVCAR-4 ovarian it was 21.4 µM; in the experiment on OVCAR-5 ovarian, greater than 100 µM; in the experiment on SN12C renal, greater than 100 µM. The TGI with T-47D breast and with UACC-257 melanoma was greater than 100 µM each time.

Regarding `Cc1cc(Br)c(N2C3=C(CC4=C2CCCC4=O)C(=O)CCC3)c(Br)c1`, the TGI in the experiment on HCC-2998 colon, in the experiment on M14 melanoma, in the experiment with OVCAR-4 ovarian, in the experiment on OVCAR-5 ovarian and in the experiment on SN12C renal was greater than 100 µM throughout.

As for `COc1ccc(-n2sc3ncc(-c4ccccc4)cc3c2=O)cc1`, the TGI with HCC-2998 colon was greater than 100 µM; in the experiment with M14 melanoma, greater than 100 µM; in the experiment on OVCAR-4 ovarian it was 45.7 µM; with OVCAR-5 ovarian it was 74 µM; with SN12C renal it was 80.2 µM; in the experiment with T-47D breast, greater than 100 µM. Also, the TGI in the experiment with UACC-257 melanoma was greater than 100 µM.

For the compound `N#CI1OC(=O)c2ccccc21`, the TGI with HCC-2998 colon was greater than 100 µM; in the experiment on M14 melanoma, greater than 100 µM; in the experiment on NCI-H522 lung it was 55.6 µM; in the experiment on OVCAR-4 ovarian, greater than 100 µM; in the experiment on OVCAR-5 ovarian, greater than 100 µM; with SN12C renal it was greater than 100 µM. The TGI in the experiment with T-47D breast and in the experiment on UACC-257 melanoma was greater than 100 µM each time.

`CCCCCCCCCCCCNC(=O)NCC(OCC)OCC`: the TGI with HCC-2998 colon, in the experiment with M14 melanoma, in the experiment with NCI-H522 lung, in the experiment on OVCAR-4 ovarian, in the experiment with OVCAR-5 ovarian and in the experiment with SN12C renal was greater than 10 µM throughout. The TGI in the experiment with T-47D breast and in the experiment with UACC-257 melanoma was greater than 10 µM each time.

On to `COC(=O)c1ccc(CN2CCc3c([nH]c4ccccc34)C2CO)o1` (stereo unspecified), for which the TGI in the experiment with HCC-2998 colon, in the experiment on M14 melanoma, with MALME-3M melanoma, in the experiment with NCI-H522 lung, with OVCAR-4 ovarian and with SN12C renal was greater than 10 µM throughout. Further, the TGI in the experiment with T-47D breast and in the experiment on UACC-257 melanoma was greater than 10 µM each time.

For `COCCC(NC(=O)C(CC(C)C)NC(=O)OC(C)(C)C)C(N)=O` (stereo not drawn) (Boc-Leu-[hSer](Me)-NH2; configuration not given here), the TGI in the experiment on HCC-2998 colon, in the experiment on M14 melanoma, with MALME-3M melanoma, in the experiment on NCI-H522 lung, in the experiment on OVCAR-4 ovarian and with SN12C renal was greater than 100 µM each time. In addition, the TGI in the experiment with T-47D breast and in the experiment on UACC-257 melanoma was greater than 100 µM throughout.
